Results published in article PMC7495481, “Sequence specificity analysis of the SETD2 protein lysine methyltransferase and discovery of a SETD2 super-substrate” (Communications Biology, 2020).
“And” between values parts separate entries of the source, which are not always exact repeats. Identical values can stand only once.

Biological target: T1, SETD2 (Homo sapiens, UniProt Q9BYW2)
T1 construct: SETD2 catalytic SET domain (amino acids 1347–1711, UniProt No: Q9BYW2); made in house; host or cells: E. coli
T1 sequence (Q9BYW2 1347-1711): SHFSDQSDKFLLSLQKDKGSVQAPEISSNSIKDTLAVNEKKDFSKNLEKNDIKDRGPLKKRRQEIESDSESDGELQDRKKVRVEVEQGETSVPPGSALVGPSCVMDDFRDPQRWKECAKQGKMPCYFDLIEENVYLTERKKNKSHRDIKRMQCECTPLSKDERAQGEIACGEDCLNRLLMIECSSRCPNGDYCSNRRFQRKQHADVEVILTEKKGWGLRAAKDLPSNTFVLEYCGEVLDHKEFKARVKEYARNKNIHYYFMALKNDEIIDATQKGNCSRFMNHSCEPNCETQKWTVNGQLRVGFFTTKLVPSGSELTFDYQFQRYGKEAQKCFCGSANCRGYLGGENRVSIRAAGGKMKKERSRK
Test: Peptide SPOT array target lysine methylation of selected non-histone peptides (Fig. 3b)
Format: biochemical
Settings: Exp1–Exp3, 3–6 µM SETD2, 0.76 µM AdoMet, 60 min, pH 9
Excerpt: However, we could identify 166 possible targets, which contain partial matches to the substrate specificity profile. The possible methylation of these 166 putative substrates was investigated at the peptide level. For this, fifteen amino acid long peptides containing the sequence of the non-histone targets surrounding the predicted target lysine were synthesized on a membrane. The H3K36 (29–43) peptide (spots A1, I9), the super-substrate peptide (spots A3, I11) and the corresponding lysine to alanine mutation peptides (spot A2, I10, and A4, I12) were included as positive and negative controls (Fig. 3a, Supplementary Fig. 4 and Supplementary Table 2). The methylation reactions and the detection of the methylation signals were performed in duplicates as described above. We observed that all of the investigated peptides were more weakly methylated than the super-substrate peptide. […] In the next step, 20 of the peptides were selected for further investigation based on the methylation intensity and the known functions of the proteins to confirm the methylation at the predicted target site. The peptides were synthesized on another membrane, now including the target lysine to alanine mutation control peptides in each case. The methylation reactions and the detection of the signal were conducted as described above (Fig. 3b, Supplementary Fig. 5 and Supplementary Table 3).
Fig. 3 Identification of non-histone substrates of SETD2. a Candidate non-histone peptide substrates were identified in the human proteome based on the SETD2 super-substrate specificity profile. The peptides were synthesized on a peptide SPOT array (Supplementary Table 2) and methylated by SETD2. As controls, the H3K36, H3K36A, ssK36 and ssK36A peptides were included on spots A1–A4 and I9–I12. The autoradiography image is an example of the obtained results. […] The quantification of the data of two experiments is shown in Supplementary Fig. 4. b Analysis of target lysine methylation of selected non-histone substrate peptides. Peptide SPOT arrays were synthesized containing the non-histone peptide substrates identified in panel A in addition to the lysine to alanine mutations presented on the array as every second spot (Supplementary Table 3). As controls, the H3K36, H3K36A, ssK36, and ssK36A mutant peptides were included on spot A1–A4 and C5–C8. The autoradiography image is an example of the obtained results. The quantification of the data of three experiments is shown in Supplementary Fig. 5. Peptides selected for furhter analysis are highlighted by blue circles. c Protein methylation of FBN1 and confirmation of the target lysine methylation. Both wild type (WT) and mutant (K666R) FBN1 were purified and equal amounts were methylated by SETD2 (2 µM). […] The size of FBN1 is indicated by an asterisk.
Peptide arrays containing fifteen amino acid long peptides were synthesized using the SPOT synthesis method[48] with an Autospot peptide array synthesizer (Intavis AG, Köln, Germany). After synthesis, the obtained membranes were pre-incubated in methylation buffer (20 mM Tris/HCl pH 9, 0.01% Triton X-100, 10 mM DTT, 1.5 mM MgCl2) for 5 min on a shaker. Thereafter, the membranes were incubated in methylation buffer supplemented with 0.76 µM radioactively labeled AdoMet (PerkinElmer) and 3–6 µM SETD2 enzyme for 60 min on a shaker. After methylation, the membranes were washed 5 times for 5 min in wash buffer (100 mM NH4HCO3, 1% SDS) and incubated in amplify NAMP100V (GE Healthcare) for 5 min. This was followed by the exposure of the membranes to a hyperfilm^TM high performance autoradiography (GE Healthcare) film at −80 °C in the dark. The films were developed with an Optimax Typ TR machine after different exposue times. For quantification the signal intensities were measured with the Phoretix^TM software and analyzed with Microsoft Excel.

Sequence	Relative methylation signal, Average
ATFLGYFKSGLKYKK [GELS, Gelsolin peptide, target lysine 162]	0.5433
CRKLGGVAKSATFRS [TPD55 K to A, target lysine to alanine control]	0.6652
CRKLGGVKKSATFRS [TPD55, Tumor protein D55 peptide, target lysine 112]	0.7056
DDLYGAIKKLCCVQS [PIWL2, Piwi-like protein 2 peptide, target lysine 685]	0.4271
EMSIGAIAIALEISL [HMCN1 K to A, target lysine to alanine control]	0.09371
EMSIGAIKIALEISL [HMCN1, Hemicentin-1 peptide, target lysine 127]	0.3311
GAIIGFIAVGYKKLF [ATAT K to A, target lysine to alanine control]	0.4571
GAIIGFIKVGYKKLF [ATAT, Alpha-tubulin N-acetyltransferase 1 peptide, target lysine 98]	0.7722
GHPFGYLKASTALNC [INT6, Integrator complex subunit 6 peptide, target lysine 369]	0.398
KAPRGFLARVFKRKK [CENPW K to A, target lysine to alanine control]	0.3763
LHNRGALKLTTGKCV [SIA8D, CMP-N-acetylneuraminate-poly-alpha-2,8-sialyltransferase peptide, target lysine 350]	0.4366
LICIGALKKLCNHPC [RA54B, DNA repair and recombination protein RAD54B peptide, target lysine 589]	0.598
LWKIGFFKRPLKKKM [ITA1, Integrin alpha-1 peptide, target lysine 1170]	0.4107

Second part, the sequence after the results:

Relative methylation signal, Average	Sequence
0.01828	AGARGYLATSLCVLG [DYSF K to A, target lysine to alanine control]
0.2902	AGARGYLKTSLCVLG [DYSF, Dysferlin peptide, target lysine 338]
0.1136 and 0.1005	APRFGGVARPNRYRP [DS K to A, super-substrate K36A peptide, negative control]
0.4943	ATFLGYFASGLKYKK [GELS K to A, target lysine to alanine control]
0.3265	DDLYGAIAKLCCVQS [PIWL2 K to A, target lysine to alanine control]
0.2106	GHPFGYLAASTALNC [INT6 K to A, target lysine to alanine control]
0.677	KAPRGFLKRVFKRKK [CENPW, Centromere protein W peptide, target lysine 23]
0.2642	KDVIGAFAKVFACCS [O2T11 K to A, target lysine to alanine control]
0.408	KDVIGAFKKVFACCS [O2T11, Olfactory receptor 2T11 peptide, target lysine 299]
0.2122	KRIYGGFASTAGKHP [HABP2 K to A, target lysine to alanine control]
0.2413	KRIYGGFKSTAGKHP [HABP2]
0.2965	LHNRGALALTTGKCV [SIA8D K to A, target lysine to alanine control]
0.4423	LICIGALAKLCNHPC [RA54B K to A, target lysine to alanine control]
0.403	LWKIGFFARPLKKKM [ITA1 K to A, target lysine to alanine control]
0.01267	RRGIGYLALICFLIP [ANKAR K to A, target lysine to alanine control]
